Reference: paper PMC7026882, “Macrofilaricidal Benzimidazole–Benzoxaborole Hybrids as an Approach to the Treatment of River Blindness: Part 2. Ketone Linked Analogs” (ACS Infectious Diseases, 2019)
Read-outs that look alike come from different tables or passages of the source.

Legend:
Brugia pahangi = test: In vivo efficacy in the L3 Brugia pahangi gerbil model; details: for Number of Worms Recovered, Avg Female Worms / Number of Worms Recovered, Avg Male Worms: PO, 100 mg/kg, recovery day 63
Description: For our in vivo model, gerbils were infected by injecting B. pahangi third-stage larvae (L3) that were subsequently allowed to develop to adult worms over several months. Once stable infections had been established, 21 was administered as a suspension via once-daily oral gavage at a dose of 100 mg/kg for 7, 14, or 28 days. All animals were maintained until day 63 after the start of dosing, at which time adult worms were recovered from the peritoneal cavity and microfilariae were quantified in blood samples. Flubendazole (5 mg/kg, SC × 5 days) was included as a positive control in this study. […]
(§1) in comparison to the number of control larvae that had successfully molted. IC50 values were calculated using GraphPad Prism v6.0 (http://www.graphpad.com). See Bullman et al., PLoS
(§2) Negl. Trop. Dis., 2015, 9, e3534 for further details.
(§3) Adult Brugia malayi in vivo model procedure.
(§4) Gerbils (Meriones unguiculatus) were infected by transplantation of 10 male and 10 female adult Brugia malayi into the peritoneal cavity. Gerbils were acclimated for 7 days prior to treatment. Animals were dosed based on their body weight prior to each dosing. Animals were administered their doses at the same time each day and receive standard rodent laboratory diet and water ad libitum. Gerbils were humanely euthanized at the conclusion of each study.
(§5) Peritoneal counts of male and female adult B. malayi and visual condition of the peritoneum […]
(§6) L3 Brugia pahangi in vivo model procedure.
(§7) Male gerbils (Meriones unguiculatus) approximately 6 weeks of age (50-60 g) were purchased from Charles Rivers (USA, Kingston K62 Gerbils) and infected by intraperitoneal injection with 200 Brugia pahangi third-stage larvae (L3) per animal (Filariatech, Inc., Athens, GA). Gerbils were housed with no more than 5 animals per cage and maintained 9 months prior to treatment. All gerbils were dosed in accordance with their body weight determined prior to each dosing. Animals were administered their doses at the same time each day and are allowed to feed and drink ad libitum. Gerbils were euthanized following approved institutional protocols. Euthanized animals were weighed and examined for external and visceral pathologies. The adult Brugia worms were recovered by opening the body cavity and washing the peritoneal cavity with 100 mL of phosphate buffered saline. Male and female worms were counted using a dissecting microscope.
(§8) Litomosoides sigmodontis in vivo model procedure. 2
(§9) All animal experiments with L. sigmodontis were conducted at the Institute for Medical Microbiology, Immunology and Parasitology (IMMIP), University Hospital of Bonn, in accordance to the European Union animal welfare guidelines. All protocols were approved by the local authorities (Landesamt für Natur, Umwelt und Verbraucherschutz, Cologne, Germany (AZ 84- […]
(§10) Janvier (Saint-Berthevin, France) and were housed at the animal facility of the IMMIP in individually ventilated cages on a 12h light/dark cycle with food and water ad libidum. Mice were infected at 6-8 weeks of age via exposure to the natural mite vector Ornithonyssus bacoti

[1] = Pharmacokinetics in Mongolian gerbils; format: in vivo
Text: (§11) In addition, the concentrations achieved at these doses were well in excess of the O. volvulus IC50, a requirement for in vivo activity that we had hypothesized on the basis of earlier work in the amide-linked series.

[2] = Metabolic stability (Clint) in human microsomes; format: in vitro ADME
Text: (§12) As summarized in Table 1, we were encouraged to find that the initial ketone analogs prepared, namely, 15 (6-linked) and 20 (5-linked), were quite active in an O. volvulus molting assay we used as a primary indicator of antiparasitic activity[30],[31] and were only weakly active in a G2/M arrest,[32] indicative of the interaction with mammalian tubulin. As described above, our hypothesis was to reduce Pgp efflux liability through elimination of the hydrogen-bond donor associated with the N–H of the amide linker, as this has been shown in the literature to be a contributor to recognition by Pgp.[33],[34] […] We were disappointed to find that the 5-linked analog 22 was poorly selective and the 6-linked analog 23 was only weakly active.

[3] = system: mammalian tubulin (G2/M arrest); test: G2/M arrest assay, indicative of interaction with mammalian tubulin; format: cell-based
Text: as §12

[4] = Tolerability of once daily dosing to gerbils over 7 days; format: in vivo
Text: as §11

O. volvulus = O. volvulus molting assay; format: cell-based; details: Onchocerca volvulus; molting assay
Text: as §12, with “active. […]” for “active.”
as §1, §2, §3, §4, §5, §6, §7, §8, §9, §10

[5] = Metabolite ID studies, in vitro and in vivo; format: in vitro ADME; details: in vitro or in vivo experiments
Text: However, the metabolism of flubendazole by the reduction of the ketone leads to short-lived clastogenic metabolites at low levels that may pose a minimal risk.[28]

MDCK-MDR1 cell monolayer = MDCK-MDR1 cell monolayer permeability assay; format: in vitro ADME
Text: as §12

[6] = MDCK-MDR1 cell monolayer permeability assay; format: in vitro ADME; details: dog
Text: as §12

In the case of `COC(=O)Nc1nc2ccc(C(=O)c3cccc4c3B(O)OC4)cc2[nH]1` [compound 21], the “effective in killing female worms” value (Brugia pahangi; 100 mg/kg PO once daily for 14 days) is reported as 99%, the “effective in killing female worms” value (Brugia pahangi; 100 mg/kg PO once daily for 28 days) is reported as 99% and the effect on worms (Brugia pahangi; 100 mg/kg PO once daily for only 7 days) is reported as “very little effect”. The “Number of Worms Recovered, Avg Female Worms” value (“Number … Avg Female Worms” below) (Brugia pahangi; 7 days, QD) was 13.0, the “Number of Worms Recovered, Avg Male Worms” value (“Number … Avg Male Worms” for short) (Brugia pahangi; 7 days, QD) was 25.2 and the “Number … Avg Female Worms” value (Brugia pahangi; 14 days, QD) was 0.6. For the same compound, the “Number … Avg Male Worms” value (Brugia pahangi; 14 days, QD) was 11.4, the “Number … Avg Female Worms” value (Brugia pahangi; 28 days QD) was 0.1 and the “Number … Avg Male Worms” value (Brugia pahangi; 28 days QD) was 11.1. It also gave a CLint scaled ([1]; Mongolian gerbil, blood, 2 mg/kg, Table 3, IV, dose 2) of 4.82 mL/min/kg, an AUC0-last ([1]; Table 3, IV, dose 2) of 5950 ng·h/mL and a Cmax ([1]; Table 3, IV, dose 2) of 1560 ng/mL. The AUC0-last ([1]; Table 3, PO, dose 10) was 61700 ng·h/mL, the Cmax ([1]; Table 3, PO, dose 10) was 5750 ng/mL and the AUC(0-t) ([1]; blood, 2 mg/kg, Mongolian gerbils, dose 2, IV, read-out: AUC0–24) was 5950 ng·h/mL. It also gave a Cmax ([1]; blood, 2 mg/kg, Mongolian gerbils, dose 2, IV, read-out: Cmax) of 1560 ng/mL, a Vd ([1]; blood, 2 mg/kg, Table 3, IV, dose 2, read-out: Vdss) of 3.19 L/kg and an AUC(0-t) ([1]; blood, 10 mg/kg, Mongolian gerbils, dose 10, PO, read-out: AUC0–24) of 61700 ng·h/mL. For the same compound, the Cmax ([1]; blood, 10 mg/kg, Mongolian gerbils, dose 10, PO, read-out: Cmax) was 5750 ng/mL, the AUC(0-t) ([1]; blood, 10 mg/kg, Table 3, SC, dose 10, read-out: AUC0-last) was 35700 ng·h/mL and the Cmax ([1]; blood, 10 mg/kg, Table 3, SC, dose 10, read-out: Cmax) was 3130 ng/mL. It also gave an AUC(0-t) ([1]; blood, 30 mg/kg, Table 3, PO, dose 30, read-out: AUC0-last) of 196000 ng·h/mL, a Cmax ([1]; blood, 30 mg/kg, Table 3, PO, dose 30, read-out: Cmax) of 17200 ng/mL and an AUC(0-t) ([1]; blood, 60 mg/kg, Table 3, PO, dose 60, read-out: AUC0-last) of 361000 ng·h/mL. For the same compound, the Cmax ([1]; blood, 60 mg/kg, Table 3, PO, dose 60, read-out: Cmax) was 26300 ng/mL, the AUC(0-t) ([1]; blood, 100 mg/kg, Table 3, PO, dose 100, read-out: AUC0-last) was 479000 ng·h/mL and the Cmax ([1]; blood, 100 mg/kg, Table 3, PO, dose 100, read-out: Cmax) was 34500 ng/mL. It also gave a bioavailability ([1]; blood, po, 10 mg/kg, Mongolian gerbils, dose 10, PO, read-out: bioavailability (%F)) of about 100%, a bioavailability ([1]; blood, po, 10 mg/kg, Table 3, PO, dose 10, read-out: %F) of 100% and a bioavailability ([1]; blood, sc, 10 mg/kg, Table 3, SC, dose 10, read-out: %F) of 100%. For the same compound, the “accumulation of the compound” value ([1]; once daily dosing to gerbils over 7 days) was “no accumulation”, the “dose proportionality of exposure” value ([1]; oral dosing to gerbils, up to 100 mg/kg) was “dose proportional” and the microsomal CLint [2] was 5.9 µL/min/mg. The IC50 [3] was over 38000 nM, the tolerability [4] was “well tolerated” and the IC50 (O. volvulus) was 100 nM. For the same compound, the “metabolism in metabolite ID studies” value [5] was “have not observed a significant metabolism”, the MDCK-MDR1 Papp (A-B) (MDCK-MDR1 cell monolayer) was 56.6 ×10⁻⁶ cm/s and the Papp [6] was 56.6 ×10⁻⁶ cm/s.
